Source: article PMC3338516 (PLoS ONE, 2012)
Like-named read-outs stand apart in the source and are kept apart here. Ends that are not written are not given here.

What was measured:
HLA-B0702 [1] = biological target: T1, HLA-B0702 (Homo sapiens, UniProt P01889); test: Competition-based cellular peptide binding assay, HLA-B0702; conditions: for IC50: mild-acid-treated B-LCLs, 150 nM fluorescent reference peptide […], overnight 4°C, flow cytometry, mean of two independent experiments
T1 construct: endogenous in cells
Method: (§1) To test binding affinity of eluted and predicted peptides to HLA-I, competition-based cellular peptide binding assays were performed as described earlier. In short, B-LCLs were treated with a mild acid (1∶1 mixture of 0.263M C6H8O7*H2O and 0.126M Na2HPO4*2H2O) for 1 min to remove the naturally HLA-I bound peptides. Cells were buffered with cold IMDM containing 2% FCS immediately thereafter and resuspended at a concentration of 4×10^5 cells/ml in 2% FCS and 1.5 µg/ml human β2m (Sigma-Aldrich). Then, 4×10^4 cells/well were incubated with 150 nM of fluorescently labeled reference peptide and a serial dilution of one of the eluted or predicted peptides. The following HLA-I allele-restricted reference peptides were used: […] (for HLA-A0201), […] (for HLA-A0301), […] (for HLA-B0702) and […] (for HLA-B4002), each containing a fluorescent label bound to the cysteine residue. After overnight incubation at 4°C, cells were washed twice in PBS supplemented with 1% BSA and fixed in 0.5% paraformaldehyde. Cells were analyzed with CellQuestPro or FlowJo software (Tree Star, Ashland, OR, USA). IC50 values were defined with GraphPad Prism 4.02 (GraphPad Software Inc., La Jolla, USA) using the following formula: Y = Bmax*X/(IC50+X), in which Bmax is the maximal binding capacity of the positive control peptide, X the concentration of peptide tested and IC50 the concentration of peptide needed to reach half-maximal binding.

HLA-A0201 = biological target: T2, HLA-A0201 (Homo sapiens, UniProt P04439, D140Y/D185E/D98H/E176V/E277Q/G131W/G231S/I119V/I121R/I166T/I218V/L300P/L318F/N151K/N90K/P208A/P217A/Q86G/Q94H/R138H/R169H/T345S); test: Competition-based cellular peptide binding assay, HLA-A0201; conditions: for IC50: mild-acid-treated B-LCLs, 150 nM fluorescent reference peptide […], overnight 4°C, flow cytometry, mean of two independent experiments, read-out: HLA-A201 IC50
T2 construct: endogenous in cells
Method: To test binding affinity of eluted and predicted peptides to HLA-I, competition-based cellular peptide binding assays were performed as described earlier. […] Cells were buffered with cold IMDM containing 2% FCS immediately thereafter and resuspended at a concentration of 4×10^5 cells/ml in 2% FCS and 1.5 µg/ml human β2m (Sigma-Aldrich). […] The following HLA-I allele-restricted reference peptides were used: […] (for HLA-B0702) and […] (for HLA-B4002), each containing a fluorescent label bound to the cysteine residue. After overnight incubation at 4°C, cells were washed twice in PBS supplemented with 1% BSA and fixed in 0.5% paraformaldehyde. Cells were analyzed with CellQuestPro or FlowJo software (Tree Star, Ashland, OR, USA).

HLA-B4002 [2] = biological target: T3, HLA-B4002 (Homo sapiens, UniProt P01889, A65T/A93T/A95T/D138N/D201E/D98Y/E176V/E204Q/E69K/K202T/N87E/Q56L/Q94N/R180L/S48T/Y33H/Y91S); conditions: Figure 3 legend; positive control peptide; cited from earlier work
Excerpt: (§2) (A0201 peptide), […] (A0301 peptide), SPSVDK ...

HLA-A0301 = biological target: T4, HLA-A0301 (Homo sapiens, UniProt P04439); test: Competition-based cellular peptide binding assay, HLA-A0301; conditions: Table 2; mild-acid-treated B-LCLs, 150 nM fluorescent reference peptide […], overnight 4°C, flow cytometry; mean of two independent experiments
T4 construct: endogenous in cells
Method: as §1

HLA-B4002 [3] = biological target: T3, HLA-B4002; test: Competition-based cellular peptide binding assay, HLA-B4002; conditions: Table 2; mild-acid-treated B-LCLs, 150 nM fluorescent reference peptide […], overnight 4°C, flow cytometry; mean of two independent experiments
Method: as §1

HLA-B0702 [4] = biological target: T1, HLA-B0702; conditions: Figure 3 legend; positive control peptide; cited from earlier work
Excerpt: as §2

[5] = Table 1, class by IC50 cut-off values
[6] = Table 1, concentration for half maximal competition

Row | Sequence | IC50 (HLA-B0702 [1]; Table 1) [µM] | IC50 (HLA-A0201; [6]) [µM] | IC50 (HLA-B0702 [1]; Table 2) [µM] | IC50 (HLA-A0201; Table 2) [µM] | IC50 (HLA-A0301) [µM] | IC50 (HLA-B4002 [3]) [µM] | other results
1 | ETIDWKVFESW [Peptide 5] | > 100 | > 100 |  |  |  |  | HLA-B0702 Affinity (HLA-B0702 [1]; [5]): – (no binding, >100 µM); HLA-A201 Affinity (HLA-A0201; [5]): – (no binding, >100 µM)
2 | GEFGGFGSV |  |  |  |  |  |  | IC50 (HLA-B4002 [2]): 0.2 µM
3 | KMRMATPLL |  |  | 0.47 | 10.9 | 6.43 | 0.44 | 
4 | LLAGQATT [Peptide 2] | 40.9 | > 100 |  |  |  |  | 
5 | LPMGALPQGPM [Peptide 4] | 0.41 | > 100 |  |  |  |  | 
6 | RMATPLLMQA |  |  | 7.75 | 8.08 | 2.45 | 2.05 | 
7 | RMATPLLMQAL [RMATPLLMQAL] |  |  | 1.85 | 4.49 | 4.28 | 0.48 | 
8 | RMATPLLMQALPM [Peptide 3] | 0.36 | 13.7 |  |  | 3.35 | 3.43 | 
9 | SPSVDKARAEL |  |  |  |  |  |  | IC50 (HLA-B0702 [4]): 0.7 µM
10 | SRGALYTGFSIL [Peptide 1] | 1.39 | 10.9 |  |  |  |  | 
